From patent publication US11470844B2, “Vespidae wasp repellent” (KINP CO., LTD, priority 2015, dated 2022)

Assays:
Assay in all cases: Grape juice attraction trap set outside
Type in all cases: in vivo
Vespa analis = test system: Vespa analis
Experimental: (§1) The inventors conducted the experiment at four places in Kagawa Prefecture Kinbuchi Forest Park. The experiment was conducted totally 4 times from Oct. 11 to Nov. 4, 2013, from Nov. 4 to Dec. 7, 2013, from Oct. 1 to Oct. 31, 2014, and from Oct. 31 to Dec. 9, 2014.
(§2) First, four 2 cm square holes were opened on the side of a 2 L capacity PET bottle, and 500 mL of grape juice was added thereto to prepare a control attraction trap to kill a Vespidae worker. As Test liquid example, 25 mL, 5 mL or 1 mL of 2-phenylethanol was added to the grape juice of the traps. […] Since all of the test sites were low mountainous and sloping areas and had many trees, each trap had to be suspended from the branch of live trees. As a result, the horizontal distances between a pair of control example trap and test liquid example trap could not be adjusted to the same, and the distance was from 1 m to 8.5 m. There were not only Vespidae worker but also male Vespidae among the killed Vespidae wasps in the attraction traps; however, the results of the control example and test liquid example were compared on the basis of the number of the killed Vespidae worker, since a Vespidae worker causes a stabbing accident and plays an important role in building a nest. In Table 8, “*” indicates the case where there is a significant difference at p<0.01 in the χ^2 test to which the correction of Yates is applied, and “**” indicates the case where there is a significant difference at p<0.001 in the same test. The result of the first experiment in 2013 is shown in Table 9, the result of the second experiment in 2013 is shown in Table 10, the result of the first experiment using 1% 2-phenylethanol in 2014 is shown in Table 11, the result of the second experiment in 2014 is shown in Table 12, the result of the first experiment using 0.1% 2-phenylethanol in 2014 is shown in Table 13, and the result of the second experiment in 2014 is shown in Table 14. In Tables 9 to 14, “*” indicates the case where there is a significant difference at p<0.05 in the t-test, “**” indicates the case where there is a significant difference at p<0.01 in the same test, and “***” indicates the case where there is a significant difference at p<0.001 in the same test.
(§3) In the first experiment and second experiment, the trap prepared by adding 25 mL of 2-phenylethanol to 500 mL of grape juice was used as the test liquid example of 5% 2-phenylethanol.
(§4) In the first experiment and second experiment, 10 traps prepared by adding 5 mL of 2-phenylethanol to 500 mL of grape juice and 10 traps prepared by adding 0.5 mL of 2-phenylethanol to 500 mL of grape juice were used respectively as the 2 kinds of test liquid examples of 1% 2-phenylethanol and 0.1% 2-phenylethanol to conduct the experiment.

[1] = test system: Vespa crabro flavofasciata
Experimental: as §1, §2, §3, §4

Vespa ducalis = test system: Vespa ducalis
Experimental: as §1, §2, §3, §4

Vespa mandarinia = test system: Vespa mandarinia
Experimental: as §1, §2, §3, §4

[2] = test system: Vespa simillima xanthoptera
Experimental: as §1, §2, §3, §4

[3] = test system: Vespidae worker, all species
Experimental: as §1, §2, §3, §4

[4] = 0.1% 2-phenylethanol trap, first experiment 2014, 10 traps
[5] = 0.1% 2-phenylethanol trap, second experiment 2014, 10 traps
[6] = 1% 2-phenylethanol trap, first experiment 2014, 10 traps
[7] = 1% 2-phenylethanol trap, second experiment 2014, 10 traps
[8] = 5% 2-phenylethanol trap, first experiment 2013, 18 traps
[9] = 5% 2-phenylethanol trap, second experiment 2013, 18 traps

OCCc1ccccc1 [2-Phenylethanol, 2-phenylethanol]
Total number of killed worker (Average ± SD), Vespa analis (Vespa analis; [4]): (0.60 ± 0.70) | Total number of killed worker, Vespa analis (Vespa analis; [4]): 6 | Total number of killed worker (Average ± SD), Vespa analis (Vespa analis; [5]): (0.00 ± 0.00) | Total number of killed worker, Vespa analis (Vespa analis; [5]): 0 | Total number of killed worker (Average ± SD), Vespa analis (Vespa analis; [6]): (0.00 ± 0.00) | Total number of killed worker, Vespa analis (Vespa analis; [6]): 0 | Total number of killed worker (Average ± SD), Vespa analis (Vespa analis; [7]): (0.00 ± 0.00) | Total number of killed worker, Vespa analis (Vespa analis; [7]): 0 | Total number of killed worker (Average ± SD), Vespa analis (Vespa analis; [8]): (0.00 ± 0.00) | Total number of killed worker, Vespa analis (Vespa analis; [8]): 0 | Total number of killed worker (Average ± SD), Vespa analis (Vespa analis; [9]): (0.00 ± 0.00) | Total number of killed worker, Vespa analis (Vespa analis; [9]): 0 | Total number of killed worker (Average ± SD), Vespa crabro flavofasciata [1, 4]: (1.50 ± 1.27) | Total number of killed worker, Vespa crabro flavofasciata [1, 4]: 15 | Total number of killed worker (Average ± SD), Vespa crabro flavofasciata [1, 5]: (0.00 ± 0.00) | Total number of killed worker, Vespa crabro flavofasciata [1, 5]: 0 | Total number of killed worker (Average ± SD), Vespa crabro flavofasciata [1, 6]: (0.00 ± 0.00) | Total number of killed worker, Vespa crabro flavofasciata [1, 6]: 0 | Total number of killed worker (Average ± SD), Vespa crabro flavofasciata [1, 7]: (0.00 ± 0.00) | Total number of killed worker, Vespa crabro flavofasciata [1, 7]: 0 | Total number of killed worker (Average ± SD), Vespa crabro flavofasciata [1, 8]: (0.00 ± 0.00) | Total number of killed worker, Vespa crabro flavofasciata [1, 8]: 0 | Total number of killed worker (Average ± SD), Vespa crabro flavofasciata [1, 9]: (0.00 ± 0.00) | Total number of killed worker, Vespa crabro flavofasciata [1, 9]: 0 | Total number of killed worker (Average ± SD), Vespa ducalis (Vespa ducalis; [4]): (0.40 ± 0.70) | Total number of killed worker, Vespa ducalis (Vespa ducalis; [4]): 4 | Total number of killed worker (Average ± SD), Vespa ducalis (Vespa ducalis; [5]): (0.00 ± 0.00) | Total number of killed worker, Vespa ducalis (Vespa ducalis; [5]): 0 | Total number of killed worker (Average ± SD), Vespa ducalis (Vespa ducalis; [6]): (0.00 ± 0.00) | Total number of killed worker, Vespa ducalis (Vespa ducalis; [6]): 0 | Total number of killed worker (Average ± SD), Vespa ducalis (Vespa ducalis; [7]): (0.00 ± 0.00) | Total number of killed worker, Vespa ducalis (Vespa ducalis; [7]): 0 | Total number of killed worker (Average ± SD), Vespa ducalis (Vespa ducalis; [8]): (0.00 ± 0.00) | Total number of killed worker, Vespa ducalis (Vespa ducalis; [8]): 0 | Total number of killed worker (Average ± SD), Vespa ducalis (Vespa ducalis; [9]): (0.00 ± 0.00) | Total number of killed worker, Vespa ducalis (Vespa ducalis; [9]): 0 | Total number of killed worker (Average ± SD), Vespa mandarinia (Vespa mandarinia; [4]): (3.60 ± 5.58) | Total number of killed worker, Vespa mandarinia (Vespa mandarinia; [4]): 36 | Total number of killed worker (Average ± SD), Vespa mandarinia (Vespa mandarinia; [5]): (0.30 ± 0.95) | Total number of killed worker, Vespa mandarinia (Vespa mandarinia; [5]): 3 | Total number of killed worker (Average ± SD), Vespa mandarinia (Vespa mandarinia; [6]): (0.00 ± 0.00) | Total number of killed worker, Vespa mandarinia (Vespa mandarinia; [6]): 0 | Total number of killed worker (Average ± SD), Vespa mandarinia (Vespa mandarinia; [7]): (0.00 ± 0.00) | Total number of killed worker, Vespa mandarinia (Vespa mandarinia; [7]): 0 | Total number of killed worker (Average ± SD), Vespa mandarinia (Vespa mandarinia; [8]): (0.00 ± 0.00) | Total number of killed worker, Vespa mandarinia (Vespa mandarinia; [8]): 0 | Total number of killed worker (Average ± SD), Vespa mandarinia (Vespa mandarinia; [9]): (0.00 ± 0.00) | Total number of killed worker, Vespa mandarinia (Vespa mandarinia; [9]): 0 | Total number of killed worker (Average ± SD), Vespa simillima xanthoptera [2, 4]: (0.10 ± 0.32) | Total number of killed worker, Vespa simillima xanthoptera [2, 4]: 1 | Total number of killed worker (Average ± SD), Vespa simillima xanthoptera [2, 5]: (0.00 ± 0.00) | Total number of killed worker, Vespa simillima xanthoptera [2, 5]: 0 | Total number of killed worker (Average ± SD), Vespa simillima xanthoptera [2, 6]: (0.00 ± 0.00) | Total number of killed worker, Vespa simillima xanthoptera [2, 6]: 0 | Total number of killed worker (Average ± SD), Vespa simillima xanthoptera [2, 7]: (0.00 ± 0.00) | Total number of killed worker, Vespa simillima xanthoptera [2, 7]: 0 | Total number of killed worker (Average ± SD), Vespa simillima xanthoptera [2, 8]: (0.00 ± 0.00) | Total number of killed worker, Vespa simillima xanthoptera [2, 8]: 0 | Total number of killed worker (Average ± SD), Vespa simillima xanthoptera [2, 9]: (0.00 ± 0.00) | Total number of killed worker, Vespa simillima xanthoptera [2, 9]: 0 | Number of effective trap ([3]; 0.1% 2-phenylethanol in grape juice, 2014, 1st experiment, 10 installed traps): 10 | Number of effective trap ([3]; 0.1% 2-phenylethanol in grape juice, 2014, 2nd experiment, 10 installed traps): 1 | Total number of killed worker (Average ± SD), All species [3, 4]: (6.20 ± 6.27) | Total number of killed worker, All species [3, 4]: 62 | Total number of killed worker (Average ± SD), All species [3, 5]: (0.30 ± 0.95) | Total number of killed worker, All species [3, 5]: 3 | Number of effective trap ([3]; 1% 2-phenylethanol in grape juice, 2014, 1st experiment, 10 installed traps): 0 | Number of effective trap ([3]; 1% 2-phenylethanol in grape juice, 2014, 2nd experiment, 10 installed traps): 0 | Total number of killed worker (Average ± SD), All species [3, 6]: (0.00 ± 0.00) | Total number of killed worker, All species [3, 6]: 0 | Total number of killed worker (Average ± SD), All species [3, 7]: (0.00 ± 0.00) | Total number of killed worker, All species [3, 7]: 0 | Number of effective trap ([3]; 5% 2-phenylethanol in grape juice, 2013, 1st experiment, 18 installed traps): 0 | Number of effective trap ([3]; 5% 2-phenylethanol in grape juice, 2013, 2nd experiment, 18 installed traps): 0 | Total number of killed worker (Average ± SD), All species [3, 8]: (0.00 ± 0.00) | Total number of killed worker, All species [3, 8]: 0 | Total number of killed worker (Average ± SD), All species [3, 9]: (0.00 ± 0.00) | Total number of killed worker, All species [3, 9]: 0 | time for which 2-phenylethanol contained in grape juice maintained its effect ([3]; 5% and 1% 2-phenylethanol traps): at least about one month
